pIC50: −log10 of the molar value. Read-outs that look alike come from different tables or passages of the source.
How the values were obtained:
HeLa cells = experiment: Survival Enhancement Ratio, clonogenic survival assay after 2 Gray irradiation; assay type: cell-based; conditions: inhibitor 500 nM
Procedure: The Survival Enhancement Ratio (SER) is a ratio of the enhancement of cell kill elicited by the DNA-PK inhibitor after 2 Grays of irradiation compared to unirradiated control cells. DNA-PK inhibitors were used at a fixed concentration of 500 nM. Radiation was delivered by a Faxitron 43855D machine at a dose rate of 1 Gy pre minute The SER at 2 Gray irradiation was calculated from the formula: [formula]
The degree of cell killing was monitored by a standard clonogenic survival assay. Briefly, tissue culture treated 6-well plates were seeded with HeLa cells at an appropriate concentration to give 100-200 colonies per well and returned to the incubator in order to allow the cells to attach. Four hours later, compound or vehicle control was added to the cells. The cells were then incubated for 1 hour in the presence of inhibitor prior to irradiation at 2 Gray using a Faxitron 43855D cabinet X-ray machine. The cells were then incubated for a further 16 hours before the media was replaced with fresh media in the absence of DNA-PK inhibitor. After 8 days, colonies formed were fixed and stained with Giemsa (Sigma, Poole, UK) and scored using an automated colony counter (Oxford Optronics Ltd, Oxford, UK). The data was calculated as described above.

DNA-PK [1] = molecular target: T1, DNA-PK (Homo sapiens, UniProt P78527); experiment: DNA-PK inhibition assay (ELISA, p53 serine 15 phosphorylation of GST-p53N66); assay type: biochemical, Mammalian (HeLa cell nuclear extract)
Procedure: In order to assess the inhibitory action of the compounds against DNA-PK in vitro, the following assay was used to determine IC50 values.
DNA-PK (250 ng) activity was measured at 30° C., in a final volume of 40 μl, in buffer containing 25 mM Hepes, pH7.4, 12.5 mM MgCl2, 50 mM KCl, 1 mM DTT, 10% Glycerol, 0.1% NP-40 and […] of the substrate GST-p53N66 (the amino terminal 66 amino acid resiudes of human wild type p53 fused to glutathione S-transferase) in polypropylene 96 well plates. To the assay mix, varying concentrations of inhibitor (in DMSO at a final concentration of 1%) were added. After 10 minutes of incubation, ATP was added to give a final concentration of 50 μM along with a 30mer double stranded DNA oligonucleotide (final concentraion of 0.5 ng/ml) to initiate the reaction. After 1 hour with shaking, 150 μl of phosphate buffered saline (PBS) was added to the reaction and 5 μl then transferred to a 96 well opaque white plate containing 45 μl of PBS per well where the GSTp53N66 substrate was allowed to bind to the wells for 1 hour. […] An anti-rabbit HRP conjugated secondary antibody (Pierce) was then employed in the ELISA before the addition of chemiluminescence reagent (NEN Renaissance) to detect the signal as measured by chemiluminescent counting via a TopCount NXT (Packard).
The enzyme activity for each compound is then calculated using the following equation: [formula] […]

PI 3-kinase = conditions: stated to be the same as for DNA-PK; cited from earlier work
cells = conditions: cited from earlier work
DNA-PK [2] = molecular target: T1, DNA-PK; conditions: in vitro; read-out: IC50 towards DNA-PK; cited from earlier work

Row | SMILES | SER (Survival Enhancement Ratio) (HeLa cells) | pIC50 (DNA-PK [1]) | pIC50 (PI 3-kinase) | sensitisation of cells to the effects of IR (cells) | pIC50 (DNA-PK [2])
1 | O=c1cc(N2CCOCC2)oc2c(-c3cccc(-c4ccccc4)c3)cccc12 | 1.5 | 6.12 | – | – | –
2 | O=c1cc(N2CCOCC2)oc2c(-c3ccccc3)cccc12 [LY294002] | – | – | ~6.00 | weakly sensitise | ~6.00
